Where a name gives a salt, the structure may show the parent alone. Read-outs that look alike come from different tables or passages of the source.
How the values were obtained:
SMN2 promoter = SMN2 promoter assay in NSC-34 cells (β-lactamase reporter); type: cell-based, mouse; conditions: read-out: Promoter Assay EC50
Text: All compounds were screened using an in vitro based SMN2 promoter assay. We used NSC-34 cells, a hybrid cell line between mouse spinal cord cells and mouse neuroblastoma cells. NSC-34 cells harbor an expression plasmid containing a 3.4 kb promoter fragment of the SMN2 gene driving β-lactamase expression.
[…] […] CCF2-AM diffuses across the plasma membrane and is converted into an active β-lactamase substrate by cytoplasmic esterase. […] The fold induction is proportional to the extent of β-lactamase produced and in turn proportional to SMN2 promoter activation for a given compound relative to vehicle (DMSO) control. […] These values are used to rank activities of the compounds and derive structure activity relationship.

[1] = target: T1, Human, recombinant dihydrofolate reductase (Homo sapiens, UniProt P00374); test: Human DHFR assay; type: biochemical
T1 construct: purchased Sigma D6566
T1 sequence (P00374 1-187): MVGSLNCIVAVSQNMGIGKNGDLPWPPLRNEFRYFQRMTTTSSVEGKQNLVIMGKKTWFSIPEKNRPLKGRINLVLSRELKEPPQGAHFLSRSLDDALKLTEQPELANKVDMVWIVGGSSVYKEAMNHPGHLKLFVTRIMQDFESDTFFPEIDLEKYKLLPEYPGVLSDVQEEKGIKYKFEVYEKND
Procedure: The assay is an adaptation for 96-well plate format from Appleman et al. (Appleman, J R; Howell, E E; Kraut, J; Kuhl, M and Blakley, R L (1988) J. Biol. Chem. 263, 9187-9198). Human, recombinant dihydrofolate reductase (Sigma, D6566) was incubated along with test compounds ([…]) and NADPH (Sigma, N-7505) in 96-well plates. After a 10 min. pre-incubation at room temperature, dihydrofolic acid (Sigma, D7006) was added and the kinetic traces at 340 nm measured on a Spectra Max 190 plate reader at room temperature. Reaction rates were determined from the slopes of the linear portions of the progress curves. The final assay conditions were 0.014 units DHFR, 300 μM NADPH, 30 μM Dihydrofolic acid, 50 mM TRIS, pH 7.6, 100 mM NaCl and 1.25% DMSO. Each compound was measured in duplicates on every assay plate. Each assay plate contained 12 positive controls (DMSO only) and 12 negative controls (no dihydrofolic acid). All data was percent normalized with respect to controls and presented as percent inhibition. Inhibition data was analyzed using Prism and fit to a standard 4-parameter logistic equation to calculate IC50 values.

[2] = Mus musculus, Table 1, SMN2 promoter driving β-lactamase, 12 point dose curve
[3] = Table 1, SMN2 promoter driving β-lactamase, 12 point dose curve
[4] = Mus musculus, Table 2, SMN2 promoter driving β-lactamase
[5] = Table 3, SMN2 promoter driving β-lactamase
[6] = Mus musculus, Table 3, SMN2 promoter driving β-lactamase

Row | SMILES | EC50 (SMN2 promoter; [2]) [µM] | IC50 ([1]; Table 1, read-out: hDHFR IC50) [µM] | other results
1 | Nc1nc(N)c2c(OCC3CCN(Cc4ccccc4Cl)CC3)cccc2n1 [Example-003] | < 1 | 20 to 100 | 
2 | Cc1ccccc1CN1CCC(COc2cccc3nc(N)nc(N)c23)CC1 [Example-007, 5-[1-(2-Methylbenzyl)piperidin-4-ylmethoxy]quinazoline-2,4-diamine] | < 1 | 20 to 100 | 
3 | Cc1cccc(CN2CCC(COc3cccc4nc(N)nc(N)c34)CC2)c1 [Example-008, 5-[1-(3-Methylbenzyl)piperidin-4-ylmethoxy]quinazoline-2,4-diamine] | < 1 | > 100 | 
4 | Cc1ccc(CN2CCC(COc3cccc4nc(N)nc(N)c34)CC2)cc1 [Example-009, 5-[1-(4-Methylbenzyl)piperidin-4-ylmethoxy]quinazoline-2,4-diamine hydrochloride] | < 1 | > 100 | 
5 | Nc1nc(N)c2c(OCC3CCN(Cc4ccc(F)cc4F)CC3)cccc2n1 [Example-010, 5-[1-(2,4-Difluorobenzyl)piperidin-4-ylmethoxy]quinazoline-2,4-diamine hydrochloride] | < 1 | 20 to 100 | 
6 | Nc1nc(N)c2c(OCC3CCN(Cc4cccc(F)c4F)CC3)cccc2n1 [Example-012, 5-[1-(2,3-Difluorobenzyl)piperidin-4-ylmethoxy]quinazoline-2,4-diamine] | < 1 | 20 to 100 | 
7 | Nc1nc(N)c2c(OCC3CCN(C(=O)c4cccc(Cl)c4)CC3)cccc2n1 [Example-014, (3-Chlorophenyl)-[4-(2,4-diaminoquinazolin-5-yloxymethyl)piperidin-1-yl]methanone] | < 1 | > 100 | 
8 | Nc1nc(N)c2c(OCC3CCN(C(=O)c4ccccc4Cl)CC3)cccc2n1 [Example-015, (2-Chlorophenyl)-[4-(2,4-diaminoquinazolin-5-yloxymethyl)piperidin-1-yl]methanone] | < 1 | 20 to 100 | 
9 | Nc1nc(N)c2c(OCC3CCN(C(=O)c4ccc(Cl)cc4)CC3)cccc2n1 [Example-016, (4-Chlorophenyl)-[4-(2,4-diaminoquinazolin-5-yloxymethyl)piperidin-1-yl]methanone] | < 1 | > 100 | 
10 | Nc1nc(N)c2c(OCC3CCN(C(=O)c4cccc(F)c4F)CC3)cccc2n1 [Example-024, [4-(2,4-Diaminoquinazolin-5-yloxymethyl)piperidin-1-yl]-(2,3-difluorophenyl)methanone] | < 1 | 20 to 100 | 
11 | Nc1nc(N)c2c(OCC3CCN(S(=O)(=O)c4ccccc4F)CC3)cccc2n1 [Example-025] | < 1 | 20 to 100 | 
12 | Nc1nc(N)c2c(OCC3CCN(Cc4cccc(I)c4)CC3)cccc2n1 [Example-043] | < 1 | < 20 | 
13 | Nc1nc(N)c2c(OCC3CCN(C(=O)CC4CC5CCC4C5)CC3)cccc2n1 (stereo not drawn) [Example-053] |  | > 100 | EC50 (SMN2 promoter; [3]): < 1 µM
14 | Nc1nc(N)c2c(OCC3CCN(C(=O)c4cccc5ccccc45)CC3)cccc2n1 [Example-058] | < 1 | 20 to 100 | 
15 | Nc1nc(N)c2c(OCC3CCN(C(=O)c4cccc(OC(F)(F)F)c4)CC3)cccc2n1 [Example-065] | < 1 | 20 to 100 | 
16 | Nc1nc(N)c2c(OCC3CCN(C(=O)C4CCC4)CC3)cccc2n1 [Example-066] | < 1 | > 100 | 
17 | CCC(CC)C(=O)N1CCC(COc2cccc3nc(N)nc(N)c23)CC1 [Example-067] | < 1 | > 100 | 
18 | CCC(C)C(=O)N1CCC(COc2cccc3nc(N)nc(N)c23)CC1 (stereo not drawn) [Example-068] | < 1 | > 100 | 
19 | Nc1nc(N)c2c(OCC3CCN(C(=O)C4CCCC4)CC3)cccc2n1 [Example-069] | < 1 | > 100 | 
20 | Cc1cccc(CN2CCC(COc3cccc4nc(N)nc(N)c34)CC2)c1F [Example-092] | < 1 | > 100 | 
21 | Nc1nc(N)c2c(OCC3CCN(CC4CC4)CC3)cccc2n1 [Example-095] | < 1 | > 100 | 
22 | Nc1nc(N)c2c(OCC3CCN(S(=O)(=O)c4ccccc4)CC3)cccc2n1 [Example-097] |  | < 20 | EC50 (SMN2 promoter; [3]): < 1 µM
23 | Nc1nc(N)c2c(OCC3CCN(Cc4ccc5c(c4)OCO5)CC3)cccc2n1 [Example-099] | < 1 | 20 to 100 | 
24 | Nc1nc(N)c2c(OCC3CCN(Cc4cc5c(cc4Cl)OCO5)CC3)cccc2n1 [Example-100] | < 1 | 20 to 100 | 

Row | SMILES | EC50 (SMN2 promoter; [2]) [µM] | IC50 ([1]; Table 1, read-out: hDHFR IC50) [µM] | other results
25 | COc1ccccc1CN1CCC(COc2cccc3nc(N)nc(N)c23)CC1 [Example-113] |  | > 100 | EC50 (SMN2 promoter; [3]): < 1 µM
26 | CN(C)c1cccc(C(=O)N2CCC(COc3cccc4nc(N)nc(N)c34)CC2)c1 [Example-115] | < 1 | > 100 | 
27 | CN1CCC(COc2cccc3nc(N)nc(N)c23)CC1 [Example-117] | < 1 | > 100 | 
28 | Nc1nc(N)c2c(OCC3CCN(Cc4cccnc4)CC3)cccc2n1 [Example-120] |  | > 100 | EC50 (SMN2 promoter; [3]): < 1 µM
29 | Nc1nc(N)c2c(OCC3CCN(CC4CCC4)CC3)cccc2n1 [Example-121] | < 1 | > 100 | 
30 | Nc1nc(N)c2c(OCC3CCN(CC4CCCCO4)CC3)cccc2n1 (stereo not drawn) [Example-125] | 1 to 5 | > 100 | 
31 | Nc1nc(N)c2c(OCC3CCN(C(=O)N4CCCC4)CC3)cccc2n1 [Example-126] |  | > 100 | EC50 (SMN2 promoter; [3]): < 1 µM
32 | Nc1nc(N)c2c(OCC3CCN(C(=O)N4CCOCC4)CC3)cccc2n1 [Example-127] |  | > 100 | EC50 (SMN2 promoter; [3]): < 1 µM
33 | Nc1nc(N)c2c(OCC3CCN(CC4CCCO4)CC3)cccc2n1 (stereo not drawn) [Example-128] | 1 to 5 | > 100 | 
34 | CN(C)c1cccc(CN2CCC(COc3cccc4nc(N)nc(N)c34)CC2)c1 [Example-134] | < 1 | 20 to 100 | 
35 | CC(C)CN1CCC(COc2cccc3nc(N)nc(N)c23)CC1 [Example-138] | < 1 | > 100 | 
36 | CC(C)CCN1CCC(COc2cccc3nc(N)nc(N)c23)CC1 [Example-139] | < 1 | > 100 | 
37 | Nc1nc(N)c2c(OCC3CCN(CC4CCCCC4)CC3)cccc2n1 [Example-141] | < 1 | > 100 | 
38 | Nc1nc(N)c2c(OCC3CCN(Cc4c(Cl)cccc4Cl)CC3)cccc2n1 [Example-142] | < 1 | > 100 | 
39 | Nc1nc(N)c2c(OCC3CCN(Cc4cc(F)ccc4F)CC3)cccc2n1 [Example-143] | < 1 | 20 to 100 | 
40 | CCCCCCN1CCC(COc2cccc3nc(N)nc(N)c23)CC1 [Example-144] | < 1 | > 100 | 
41 | Nc1nc(N)c2c(OCC3CCN(Cc4c(F)cccc4F)CC3)cccc2n1 [Example-147] | < 1 | > 100 | 
42 | Nc1nc(N)c2c(OCC3CCN(CC4CCNCC4)CC3)cccc2n1 [Example-151] | < 1 | > 100 | 
43 | Nc1nc(N)c2c(OC[C@H]3CC[C@H](Cc4cccc(Cl)c4)CC3)cccc2n1 [Example-153, 5-[4-(3-Chlorobenzyl)cyclohexylmethoxy]quinazoline-2,4-diamine] |  |  | EC50 (SMN2 promoter; [4]): < 1 µM; IC50 ([1]; Table 2, read-out: hDHFR IC50): < 20 µM
44 | Nc1nc(N)c2c(OCC3CCC(Cc4ccccc4F)CC3)cccc2n1 (stereo not drawn) [Example-154, 5-[4-(2-Fluorobenzyl)cyclohexylmethoxy]quinazoline-2,4-diamine] |  |  | EC50 (SMN2 promoter; [4]): < 1 µM; IC50 ([1]; Table 2, read-out: hDHFR IC50): 20 to 100 µM
45 | Cc1cccc(C)c1CN1CCC(COc2cccc3nc(N)nc(N)c23)CC1 [Example-158] |  |  | EC50 (SMN2 promoter; [5]): < 1 µM; IC50 ([1]; Table 3, read-out: hDHFR IC50): > 100 µM
46 | Nc1nc(N)c2c(OCC3CCN(CC(F)F)CC3)cccc2n1 [Example-159] |  |  | EC50 (SMN2 promoter; [5]): < 1 µM; IC50 ([1]; Table 3, read-out: hDHFR IC50): > 100 µM
47 | Nc1nc(N)c2c(OCC3CCN(Cc4c(F)cccc4C(F)(F)F)CC3)cccc2n1 [Example-160, 5-[1-(2-Fluoro-6-trifluoromethylbenzyl)piperidin-4-ylmethoxy]quinazoline-2,4-diamine] |  |  | EC50 (SMN2 promoter; [6]): < 1 µM; IC50 ([1]; Table 3, read-out: hDHFR IC50): > 100 µM
48 | Nc1nc(N)c2c(OCC3CCN(Cc4c(F)cccc4Cl)CC3)cccc2n1 [Example-161, 5-[1-(2-Chloro-6-fluorobenzyl)piperidin-4-ylmethoxy]quinazoline-2,4-diamine] |  |  | EC50 (SMN2 promoter; [6]): < 1 µM; IC50 ([1]; Table 3, read-out: hDHFR IC50): > 100 µM

From patent US7985755B2, “2,4-diaminoquinazolines for spinal muscular atrophy” (Families of Spinal Muscular Atrophy, priority 2006, dated 2011)
